From patent publication US12396961B2, “Compounds and compositions for intracellular delivery of agents” (ModernaTX, Inc., priority 2015, dated 2025) come the findings set out here.

Molecules are shown by their SMILES.

The subject of data set [1] is luciferase (Luc) mRNA expression. Put plainly: Luc expression (AUC) in CD-1 mice relative to MC3. It counts as in vivo. The settings on record: Table 7b; Luc expression, CD-1 mice, 0.5 mpk. The procedure, abridged:
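CD-1 mice dosed at 0.5 mpk with nanoparticle compositions carrying luciferase mRNA; total light flux acquired by whole-body luminescent imaging 6 h after administration. Expression referenced to MC3-containing composition.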

Data set [2] concerns LDLr mRNA / Luc expression. Put plainly: Expression (AUC) in LDLr−/− mice relative to KL22. In kind it is in vivo. As to conditions: Table 7b.
Another data set concerns hEPO mRNA expression. Put plainly: hEPO levels in non-human primates. In kind it is in vivo. As to the method:
FIG. 10 is a graph showing hEPO levels in non-human primates up to −50 h after administration of a nanoparticle composition containing Compound 4, compared to a composition containing MC3.
The tolerability and efficacy of nanoparticle compositions to non-human primates is evaluated in Cynomolgus monkeys. Monkeys are administered an optimized nanoparticle composition including an mRNA encoding hEPO once weekly for four weeks. The levels of hEPO protein, mRNA, and cytokine profiles are measured using ELISA-based techniques before and 2, 6, 12, 24, 48, 72, and 120 hours after each administration.

The subject of data set [3] is GFP mRNA expression in liver cells. The data set is described as follows: Mouse liver immunohistochemistry (IHC) of GFP after GFP mRNA LNP. In kind it is in vivo, CD-1 mouse; LDLR knockout mouse. As to conditions: i.v. 0.5 mpk; MC3: CD-1 mouse, 6h; Compound 4: LDLR knockout mouse, 8h. As to the method:
FIG. 11 is a pair of images comparing the results of a mouse liver immunohistochemistry (IHC) using mRNA expressing green fluorescent protein (GFP) after administration of nanoparticle compositions containing Compound 4 and MC3.
FIG. 16 is a graph showing GFP levels in the livers of LDLR knockout mice at 30 min to 24 h after intravenous administration of an eGFP RNA in a lipid composition containing Compound 4. The liver GFP levels were determined via IHC. The square markers represent the number of GFP positive cells following administration of a dose of 0.1 mpk of the composition. The circular markers represent the number of GFP positive cells following administration of a dose of 0.5 mpk of the composition.

Data set [4] is described as follows: Particle size and polydispersity index (Zetasizer Nano ZS). In kind it is physicochemical. The settings on record: Table 1; DOPE 40:20:38.5:1.5, Luc mRNA. The procedure, abridged:
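Particle size and polydispersity index were measured by dynamic light scattering on a Zetasizer Nano ZS in 1×PBS. Zeta potential was measured in 15 mM PBS.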

Data set [5] can be described thus: Lipid levels (clearance) in liver and spleen 48 hours after administration. It counts as in vivo, rats. As to conditions: rat liver, 48 h. As to the method:
Formulations were administered intravenously to rats (n=3 or 6) at a dosage of 0.2 mg/kg or 0.5 mg/kg (mpk) and hEPO levels measured at 3, 6, and 24 hour time points. After the 48 hour time point, livers and spleens were harvested and frozen.
The amount of lipid in the liver and spleen 48 hours after administration of a nanoparticle composition was also measured. […] In contrast, approximately 60% of doses including MC3 or Compound 22 remained in the liver after 48 hours. Less than 3% of the dose remained in the spleen for each composition tested.

In the case of `CCCCCCCCCN(CCCCCCCCC)CCN(CCCCCCCCC)CC(=O)N1CCN(C(=O)CN(CCCCCCCCC)CCCCCCCCC)CC1` [Compound 4, 2-(Dinonylamino)-1-(4-(N-(2-(dinonylamino)ethyl)-N-nonylglycyl)piperazin-1-yl)ethan-1-one], the “Lipid/MC3 AUC CD-1 mice 0.5 mpk” value in data set [1] was 3.70. Besides, the “Lipid/KL22 AUC LDLr−/− mice 0.5 mpk, LDLr” value in data set [2] came to 2.03. Also, in the data set on hEPO mRNA expression, the “hEPO expression compared to MC3 (FIG. 10)” value is reported as 3 fold. Besides, the “GFP protein expression in liver cell types (IHC, FIG. 11)” value in data set [3] is on record as “less protein expression in Kupffer cells”. Besides, the PDI in data set [4] is 0.120. Also, the “% dose remaining Rat liver (48 h)” value in data set [5] is given as 37.82%.
